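Where inhibition never reached the appropriate level, the endpoint shown equals the highest concentration tested. Otherwise, values were interpolated linearly from a five-concentration, 48-hour dose response in 96-well plates. At the GI50, growth is halved.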 The source made the active and inactive calls. Rule as the data show it: active = GI50 up to about 1.1 µM and inactive = higher.
Legend:
Assay in all cases: inhibition of tumour cell growth, NCI panel, 48 h
HT-29 = system: HT-29
MDA-MB-435 = system: MDA-MB-435
SNB-19 = system: SNB-19
SW-620 = system: SW-620
A549 = system: A549
M14 = system: M14
NCI-H226 = system: NCI-H226
T47D = system: T47D
UO-31 = system: UO-31
SK-MEL-28 = system: SK-MEL-28
CCRF-CEM = system: CCRF-CEM
786-0 = system: 786-0
SF-539 = system: SF-539
SF-295 = system: SF-295
RXF 393 = system: RXF 393
NCI/ADR-RES = system: NCI/ADR-RES
U-251 = system: U-251
SNB-75 = system: SNB-75

Measured: GI50

CCN1C(=O)C(=C/C=C/c2ccc(N(CC)CC)cc2)C(=O)N(CC)C1=S
inactive: HT-29 > 100 µM | MDA-MB-435 86.9 µM | SNB-19 > 100 µM | SW-620 > 100 µM | A549 > 100 µM | M14 > 100 µM | NCI-H226 93.3 µM | T47D > 100 µM | UO-31 > 100 µM | SK-MEL-28 > 100 µM | CCRF-CEM 32.4 µM | 786-0 > 100 µM | SF-539 72.1 µM | SF-295 > 100 µM | RXF 393 > 100 µM | NCI/ADR-RES 33.9 µM | U-251 > 100 µM

O=c1c(-c2ccccc2)c(SCCN2CCCC2)n(-c2ccccc2)c(=S)n1-c1ccccc1
inactive: HT-29 > 100 µM | MDA-MB-435 > 100 µM | SNB-19 > 100 µM | SW-620 > 100 µM | A549 > 100 µM | M14 > 100 µM | NCI-H226 83.2 µM | T47D > 100 µM | SK-MEL-28 > 100 µM | CCRF-CEM > 100 µM | 786-0 > 100 µM | SF-539 > 100 µM | SF-295 > 100 µM | SNB-75 34.4 µM | RXF 393 > 100 µM | NCI/ADR-RES > 100 µM | U-251 > 100 µM

CN(Cc1cnc2nc(N)nc(N)c2n1)c1ccc(C(=O)NCS(=O)(=O)O)cc1
inactive: HT-29 > 100 µM | MDA-MB-435 91.2 µM | SNB-19 > 100 µM | SW-620 78.5 µM | A549 95.7 µM | M14 > 100 µM | NCI-H226 > 100 µM | T47D > 100 µM | UO-31 > 100 µM | SK-MEL-28 > 100 µM | 786-0 59.3 µM | SF-539 85.7 µM | SF-295 > 100 µM | SNB-75 29.4 µM | NCI/ADR-RES 34.3 µM | U-251 > 100 µM

COC(=O)[C@H](Cc1ccccc1)NP(=O)(OCCC#N)OCC1OC(n2cc(C)c(=O)[nH]c2=O)CC1N=[N+]=[N-] (some centres undefined)
inactive: HT-29 > 100 µM | MDA-MB-435 > 100 µM | SNB-19 > 100 µM | SW-620 > 100 µM | A549 > 100 µM | M14 > 100 µM | NCI-H226 > 100 µM | T47D > 100 µM | UO-31 > 100 µM | CCRF-CEM > 100 µM | 786-0 > 100 µM | SF-295 > 100 µM | SNB-75 > 100 µM | RXF 393 > 100 µM | NCI/ADR-RES > 100 µM | U-251 > 100 µM

CN1CC2CC(C1)c1cccc(=O)n1C2 (centres undefined)
inactive: HT-29 > 100 µM | MDA-MB-435 > 100 µM | SNB-19 > 100 µM | A549 > 100 µM | M14 > 100 µM | T47D > 100 µM | UO-31 > 100 µM | 786-0 > 100 µM | SF-295 > 100 µM | SNB-75 > 100 µM | RXF 393 > 100 µM | NCI/ADR-RES > 100 µM | U-251 > 100 µM

Reference: ChEMBL document CHEMBL1201862, “PubChem BioAssay data set” (2004)
